One data set deals with T1, caspase-1 (Homo sapiens, UniProt P29466).
T1 sequence (P29466 120-297 limits assumed): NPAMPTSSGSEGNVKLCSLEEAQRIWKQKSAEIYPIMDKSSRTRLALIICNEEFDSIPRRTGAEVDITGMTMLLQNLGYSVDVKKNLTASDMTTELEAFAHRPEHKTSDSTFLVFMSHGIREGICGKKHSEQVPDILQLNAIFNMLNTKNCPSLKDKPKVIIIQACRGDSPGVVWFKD
T1 sequence (P29466 317-404 limits assumed): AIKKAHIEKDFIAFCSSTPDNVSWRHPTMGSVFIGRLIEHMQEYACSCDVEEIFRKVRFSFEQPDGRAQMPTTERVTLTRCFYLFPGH
The settings on record: cited from earlier work.

Another data set addresses T2, calpain II (Homo sapiens, UniProt P17655).
T2 sequence (P17655 1-700): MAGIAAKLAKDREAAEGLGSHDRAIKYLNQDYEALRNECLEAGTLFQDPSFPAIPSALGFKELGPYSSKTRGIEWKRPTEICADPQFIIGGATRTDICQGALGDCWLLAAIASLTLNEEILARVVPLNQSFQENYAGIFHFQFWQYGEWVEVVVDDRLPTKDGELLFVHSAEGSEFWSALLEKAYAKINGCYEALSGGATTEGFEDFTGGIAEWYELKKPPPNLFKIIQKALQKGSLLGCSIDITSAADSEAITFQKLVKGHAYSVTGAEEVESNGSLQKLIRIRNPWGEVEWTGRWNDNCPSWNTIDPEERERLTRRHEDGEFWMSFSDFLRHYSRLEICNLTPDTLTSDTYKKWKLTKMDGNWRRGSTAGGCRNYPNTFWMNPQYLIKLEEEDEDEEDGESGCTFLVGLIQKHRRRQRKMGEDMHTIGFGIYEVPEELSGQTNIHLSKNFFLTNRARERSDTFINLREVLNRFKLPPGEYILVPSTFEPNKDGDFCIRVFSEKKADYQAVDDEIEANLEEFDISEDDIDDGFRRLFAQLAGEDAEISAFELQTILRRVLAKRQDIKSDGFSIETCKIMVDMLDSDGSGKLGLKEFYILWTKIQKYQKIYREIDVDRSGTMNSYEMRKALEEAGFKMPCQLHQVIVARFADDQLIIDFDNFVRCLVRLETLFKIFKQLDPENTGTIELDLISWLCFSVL
T2 sequence (P04632 1-268 partner): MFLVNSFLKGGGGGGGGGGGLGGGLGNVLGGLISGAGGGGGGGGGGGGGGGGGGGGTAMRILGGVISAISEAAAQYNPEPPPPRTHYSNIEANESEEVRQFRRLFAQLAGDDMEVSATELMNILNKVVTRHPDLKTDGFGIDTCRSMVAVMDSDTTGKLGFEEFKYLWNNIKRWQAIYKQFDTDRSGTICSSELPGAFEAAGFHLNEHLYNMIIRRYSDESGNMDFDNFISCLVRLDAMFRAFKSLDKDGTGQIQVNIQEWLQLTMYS
As to conditions: cited from earlier work.

In the next data set the target is T3, caspase-3 (Homo sapiens, UniProt P42574).
T3 sequence (P42574 29-175 limits assumed): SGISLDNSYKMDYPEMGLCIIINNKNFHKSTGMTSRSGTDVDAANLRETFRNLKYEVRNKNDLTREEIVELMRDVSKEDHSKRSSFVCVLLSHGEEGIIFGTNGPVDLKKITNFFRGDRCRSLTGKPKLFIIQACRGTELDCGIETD
T3 sequence (P42574 176-277 limits assumed): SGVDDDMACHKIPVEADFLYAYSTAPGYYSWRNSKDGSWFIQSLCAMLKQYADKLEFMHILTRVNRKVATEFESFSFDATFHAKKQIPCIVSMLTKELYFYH
As to conditions: cited from earlier work.

The target of another data set is cathepsin L (Homo sapiens, UniProt P07711). The settings on record: cited from earlier work.
Chain of cathepsin L (P07711 114-333, species assumed): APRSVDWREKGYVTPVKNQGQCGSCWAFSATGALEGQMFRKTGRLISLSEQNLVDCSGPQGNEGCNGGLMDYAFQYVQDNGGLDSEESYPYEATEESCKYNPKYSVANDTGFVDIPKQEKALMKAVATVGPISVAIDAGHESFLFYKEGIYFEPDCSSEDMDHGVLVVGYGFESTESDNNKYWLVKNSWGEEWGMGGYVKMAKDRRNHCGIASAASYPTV
For data set [1] the following is noted: in neuron culture medium at 37° C.; cited from earlier work.
In another data set the test system is white blood cells. As to the kind of experiment: 18S rDNA qPCR (66 bp / 500 bp): release of genomic DNA into plasma of stored stabilized blood, examples 1-4. In kind it is cell-based, human. On the procedure:
Blood from two different donors was collected into 10 ml K2 EDTA tubes (BD). 4.5 ml of the respectively collected blood was mixed with 0.9 ml of two different stabilization solutions A and B. Said stabilization solutions contained (per ml of stabilization solution):
A: 34.2 mg K2 EDTA and 0.15 g or 0.18 g butanamide in water When using stabilization solution A, the following final concentration in the blood/stabilization mixture was obtained: 7.2 mg K2 EDTA/ml and 2.5% (w/v) or 3% (w/v) butanamide. […] When using stabilization solution B, the following final concentration in the blood/stabilization mixture was obtained: 7.2 mg K2 EDTA/ml, 3% (w/v) butanamide and 1 μM Quinoline-Val-Asp-CH2-OPH (caspase inhibitor).
All stabilized blood samples were set up in triplicates per condition and test time point. At time point 0 (reference), immediately after mixing the stabilization solution and blood, plasma was generated and the circulating extracellular DNA was extracted. The residual stabilized blood sample was stored for three days and six days at room temperature.
Plasma was generated from the stabilized and unstabilized (EDTA) blood samples by inverting the blood containing tubes for four times. Then, the tubes were centrifuged for 10 minutes at 1900×g at 4° C. 2.5 ml of the plasma fraction was transferred into a fresh 15 ml falcon tube and centrifuged for 10 minutes at 16.000×g at 4° C. 2 ml of the respectively cleared plasma was used for extracellular nucleic acid isolation using the QIAamp circulating nucleic acid kit (QIAGEN) according to the manufacturer's instructions.
The isolated extracellular DNA was analyzed using two different qPCR assays, targeting different fragment lengths of the 18S ribosomal DNA:
18S ribosomal DNA: 66 bp amplicon 18S ribosomal DNA: 500 bp amplicon
Cycle threshholds of the individual samples were translated into amount of gDNA in the eluate, according to a gDNA standard curve. The gDNA amount of the storage time points was compared to the time zero gDNA level from the same donor and is shown as fold increase in the figures. […]
A general note: Real-time PCR tracks product formation cycle by cycle.

Where a SMILES comes first, the peptide text is derived from it. The star is where a group is joined. Cbz = O=C(OCc1ccccc1)*

By Ki is commonly meant a measure of affinity in units of concentration, obtained from inhibition or displacement.

Consider “Ac-Tyr-Val-Ala-Asp-CMK [Caspase-1 Inhibitor II]”, for which, in the data set with caspase-1, the Ki was 0.76 nM. In the case of `CC(C)C(NC(=O)OCc1ccccc1)C(=O)NC(C=O)Cc1ccccc1` (stereo not drawn) [Calpain Inhibitor III, Z-Val-Phe-CHO] (Cbz-Val-Phe-aldehyde; configuration not given here), the Ki on calpain II was 8 nM.

Regarding “Ac-Ala-Ala-Val-Ala-Leu-Leu-Pro-Ala-Val-Leu-Leu-Ala-Leu-Leu-Ala-Pro-Asp-Glu-Val-Asp-CHO (Ac-AAVALLPAVLLALLAPDEVD-aldehyde; SMILES CC(=O)N[C@@H](C)C(=O)N[C@@H](C)C(=O)N[C@H](C(=O)N[C@@H](C)C(=O)N[C@@H](CC(C)C)C(=O)N[C@@H](CC(C)C)C(=O)N1CCC[C@H]1C(=O)N[C@@H](C)C(=O)N[C@H](C(=O)N[C@@H](CC(C)C)C(=O)N[C@@H](CC(C)C)C(=O)N[C@@H](C)C(=O)N[C@@H](CC(C)C)C(=O)N[C@@H](CC(C)C)C(=O)N[C@@H](C)C(=O)N1CCC[C@H]1C(=O)N[C@@H](CC(=O)O)C(=O)N[C@@H](CCC(=O)O)C(=O)N[C@H](C(=O)N[C@H](C=O)CC(=O)O)C(C)C)C(C)C)C(C)C) [Caspase-3 Inhibitor I, Cell-Permeable]”, the Ki in the data set with caspase-3 was less than 1 nM. As for `CC(C)C[C@H](NC(=O)OCc1ccccc1)C(=O)N[C@@H](CC(C)C)C(=O)N[C@@H](Cc1ccc(O)cc1)C(=O)CF` [Calpain Inhibitor IV, Z-Leu-Leu-Tyr-CH2F] (HELM PEPTIDE1{[O=C(OCc1ccccc1)[*:2]].L.L.Y.[FC[*:1]]}$$$$V2.0), the results for the k2 at cathepsin L and on calpain II (irreversible inhibitor) were 680,000 M−1s−1) and 28,900 M−1s−1). Also acts as an inhibitor of cathepsin L (k2 =, respectively. As to “Ac-Ala-Ala-Val-Ala-Leu-Leu-Pro-Ala-Val-Leu-Leu-Ala-Leu-Leu-Ala-Pro-Tyr-Val-Ala-Asp-CHO (Ac-AAVALLPAVLLALLAPYVAD-aldehyde; SMILES CC(=O)N[C@@H](C)C(=O)N[C@@H](C)C(=O)N[C@H](C(=O)N[C@@H](C)C(=O)N[C@@H](CC(C)C)C(=O)N[C@@H](CC(C)C)C(=O)N1CCC[C@H]1C(=O)N[C@@H](C)C(=O)N[C@H](C(=O)N[C@@H](CC(C)C)C(=O)N[C@@H](CC(C)C)C(=O)N[C@@H](C)C(=O)N[C@@H](CC(C)C)C(=O)N[C@@H](CC(C)C)C(=O)N[C@@H](C)C(=O)N1CCC[C@H]1C(=O)N[C@@H](Cc1ccc(O)cc1)C(=O)N[C@H](C(=O)N[C@@H](C)C(=O)N[C@H](C=O)CC(=O)O)C(C)C)C(C)C)C(C)C) [Caspase-1 Inhibitor I, Cell-Permeable]”, the Ki with caspase-1 was 1 nM.

As for `N=c1sc2c(n1CC(=O)c1ccc([N+](=O)[O-])cc1)CCCC2` [Pifithrin-α, p-Nitro], the t½ result in data set [1] is “biological systems (t½ = 8 h in neuron culture medium at 37° C.)”.

Take `CCCC(N)=O` [butanamide]: the “stabilization capabilities compared to DMAA” value in the data set on white blood cells (Example 2, 2.5, 3, 3.5% (w/v) butanamide with 1 μM caspase inhibitor and EDTA vs 5% DMAA) is “at least comparable stabilization capabilities to DMAA”. The “stabilization capabilities compared to the stabilization solution comprising DMAA” value in the data set with white blood cells (Example 3, 0.5, 1.5, 2% butanamide in combination with 2.5, 1.5, 1% DMPA, 1 μM caspase inhibitor, EDTA) is recorded as “comparable stabilization capabilities”. Further, the “increase in 18S rDNA” value in the data set on white blood cells (Example 4, 0.5, 1.5, 2.5% (w/v) butanamide with 1 μM caspase inhibitor and 7.2 mg K2EDTA/ml) is “significantly reduced increase in 18S rDNA”.

The values above are taken from patent publication US20160281133A1, “STABILIZATION AND ISOLATION OF EXTRACELLULAR NUCLEIC ACIDS” (QIAGEN GMBH, priority 2013, published 2016).
